From PubChem BioAssay (NCI)
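Abbreviation: GI50, concentration required for 50% inhibition of growth. Definition used: TGI = concentration required for complete inhibition of growth.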

How the values were obtained:
Assay in all cases: NCI anticancer screen, dose series, 384-well format
A498 renal = system: A498 renal
A549 NSCLC = system: A549 NSCLC
BT-549 breast = system: BT-549 breast
CAKI-1 renal = system: CAKI-1 renal
COLO 205 colon = system: COLO 205 colon
DU-145 prostate = system: DU-145 prostate
HCC-2998 colon = system: HCC-2998 colon
HCT-116 colon = system: HCT-116 colon
HCT-15 colon = system: HCT-15 colon
HL-60(TB) leukemia = system: HL-60(TB) leukemia
HOP-62 NSCLC = system: HOP-62 NSCLC
HS 578T breast = system: HS 578T breast
HT29 colon = system: HT29 colon
IGROV1 ovarian = system: IGROV1 ovarian
K-562 leukemia = system: K-562 leukemia
KM12 colon = system: KM12 colon
LOX IMVI melanoma = system: LOX IMVI melanoma
M14 melanoma = system: M14 melanoma
MCF7 breast = system: MCF7 breast
MDA-MB-231 breast = system: MDA-MB-231 breast
MDA-MB-435 melanoma = system: MDA-MB-435 melanoma
MOLT-4 leukemia = system: MOLT-4 leukemia
NCI-H226 lung = system: NCI-H226 lung
NCI-H23 lung = system: NCI-H23 lung
NCI-H322M lung = system: NCI-H322M lung
NCI-H460 NSCLC = system: NCI-H460 NSCLC
NCI-H522 lung = system: NCI-H522 lung
NCI/ADR-RES ovarian = system: NCI/ADR-RES ovarian
OVCAR-3 ovarian = system: OVCAR-3 ovarian
OVCAR-4 ovarian = system: OVCAR-4 ovarian
OVCAR-5 ovarian = system: OVCAR-5 ovarian
OVCAR-8 ovarian = system: OVCAR-8 ovarian
PC-3 prostate = system: PC-3 prostate
RXF 393 renal = system: RXF 393 renal
SF-268 CNS = system: SF-268 CNS
SF-539 CNS = system: SF-539 CNS
SK-MEL-2 melanoma = system: SK-MEL-2 melanoma
SK-MEL-28 melanoma = system: SK-MEL-28 melanoma
SK-MEL-5 melanoma = system: SK-MEL-5 melanoma
SN12C renal = system: SN12C renal
SNB-19 CNS = system: SNB-19 CNS
SR leukemia = system: SR leukemia
SW-620 colon = system: SW-620 colon
T-47D breast = system: T-47D breast
TK-10 renal = system: TK-10 renal
UACC-257 melanoma = system: UACC-257 melanoma
UO-31 renal = system: UO-31 renal

For O=C(NC[C@H](O)CN1CCc2ccccc2C1)c1cc(NC2COC2)ncn1, the GI50 (A498 renal) was > 100 µM, the TGI (A498 renal) was > 100 µM and the GI50 (A549 NSCLC) was > 100 µM. For the same compound, the TGI (A549 NSCLC) was > 100 µM, the GI50 (BT-549 breast) was > 100 µM and the TGI (BT-549 breast) was > 100 µM. For the same compound, the GI50 (CAKI-1 renal) was > 100 µM, the TGI (CAKI-1 renal) was > 100 µM and the GI50 (COLO 205 colon) was > 100 µM. The TGI (COLO 205 colon) was > 100 µM, the GI50 (DU-145 prostate) was > 100 µM and the TGI (DU-145 prostate) was > 100 µM. The GI50 (HCC-2998 colon) was > 100 µM, the TGI (HCC-2998 colon) was > 100 µM and the GI50 (HCT-116 colon) was > 100 µM. The TGI (HCT-116 colon) was > 100 µM, the GI50 (HCT-15 colon) was > 100 µM and the TGI (HCT-15 colon) was > 100 µM. The GI50 (HL-60(TB) leukemia) was > 28.3 µM, the TGI (HL-60(TB) leukemia) was > 100 µM and the GI50 (HOP-62 NSCLC) was > 100 µM. The TGI (HOP-62 NSCLC) was > 100 µM, the GI50 (HS 578T breast) was > 100 µM and the TGI (HS 578T breast) was > 100 µM. The GI50 (HT29 colon) was > 100 µM, the TGI (HT29 colon) was > 100 µM and the GI50 (IGROV1 ovarian) was > 100 µM. For the same compound, the TGI (IGROV1 ovarian) was > 100 µM, the GI50 (K-562 leukemia) was > 100 µM and the TGI (K-562 leukemia) was > 100 µM. For the same compound, the GI50 (KM12 colon) was > 42.7 µM, the TGI (KM12 colon) was > 100 µM and the GI50 (LOX IMVI melanoma) was > 100 µM. For the same compound, the TGI (LOX IMVI melanoma) was > 100 µM, the GI50 (M14 melanoma) was > 100 µM and the TGI (M14 melanoma) was > 100 µM. The GI50 (MCF7 breast) was > 41.5 µM, the TGI (MCF7 breast) was > 100 µM and the GI50 (MDA-MB-231 breast) was > 100 µM. The TGI (MDA-MB-231 breast) was > 100 µM, the GI50 (MDA-MB-435 melanoma) was > 100 µM and the TGI (MDA-MB-435 melanoma) was > 100 µM. The GI50 (MOLT-4 leukemia) was 0.0768 µM, the GI50 (NCI-H226 lung) was > 100 µM and the TGI (NCI-H226 lung) was > 100 µM. The GI50 (NCI-H23 lung) was > 100 µM, the TGI (NCI-H23 lung) was > 100 µM and the GI50 (NCI-H322M lung) was > 100 µM. The TGI (NCI-H322M lung) was > 100 µM, the GI50 (NCI-H460 NSCLC) was 6 µM and the TGI (NCI-H460 NSCLC) was > 100 µM. The GI50 (NCI-H522 lung) was > 100 µM, the TGI (NCI-H522 lung) was > 100 µM and the GI50 (NCI/ADR-RES ovarian) was > 100 µM. The TGI (NCI/ADR-RES ovarian) was > 100 µM, the GI50 (OVCAR-3 ovarian) was > 69.1 µM and the TGI (OVCAR-3 ovarian) was > 100 µM. For the same compound, the GI50 (OVCAR-4 ovarian) was 21.8 µM, the TGI (OVCAR-4 ovarian) was > 100 µM and the GI50 (OVCAR-5 ovarian) was > 100 µM. The TGI (OVCAR-5 ovarian) was > 100 µM, the GI50 (OVCAR-8 ovarian) was > 100 µM and the TGI (OVCAR-8 ovarian) was > 100 µM. The GI50 (PC-3 prostate) was > 100 µM, the TGI (PC-3 prostate) was > 100 µM and the GI50 (RXF 393 renal) was > 100 µM. For the same compound, the TGI (RXF 393 renal) was > 100 µM, the GI50 (SF-268 CNS) was > 100 µM and the TGI (SF-268 CNS) was > 100 µM. The GI50 (SF-539 CNS) was > 100 µM, the TGI (SF-539 CNS) was > 100 µM and the GI50 (SK-MEL-2 melanoma) was > 100 µM. The TGI (SK-MEL-2 melanoma) was > 100 µM, the GI50 (SK-MEL-28 melanoma) was > 100 µM and the TGI (SK-MEL-28 melanoma) was > 100 µM. For the same compound, the GI50 (SK-MEL-5 melanoma) was > 100 µM, the TGI (SK-MEL-5 melanoma) was > 100 µM and the GI50 (SN12C renal) was > 100 µM. The TGI (SN12C renal) was > 100 µM, the GI50 (SNB-19 CNS) was > 100 µM and the TGI (SNB-19 CNS) was > 100 µM. The GI50 (SR leukemia) was 0.117 µM, the TGI (SR leukemia) was 8.35 µM and the GI50 (SW-620 colon) was > 100 µM. The TGI (SW-620 colon) was > 100 µM, the GI50 (T-47D breast) was 4.97 µM and the TGI (T-47D breast) was > 100 µM. For the same compound, the GI50 (TK-10 renal) was > 100 µM, the TGI (TK-10 renal) was > 100 µM and the GI50 (UACC-257 melanoma) was > 100 µM. For the same compound, the TGI (UACC-257 melanoma) was > 100 µM, the GI50 (UO-31 renal) was > 100 µM and the TGI (UO-31 renal) was > 100 µM.
Work on CN1CCN(c2ccc(Nc3cc(-c4cccc(-n5ccc6cc(C7CC7)cc(F)c6c5=O)c4CO)cn(C)c3=O)nc2)CC1 yielded a GI50 (A498 renal) of 2.05 µM, a TGI (A498 renal) of 3.96 µM and a GI50 (A549 NSCLC) of 3.1 µM. It also gave a TGI (A549 NSCLC) of 10.5 µM, a GI50 (BT-549 breast) of 2.24 µM and a TGI (BT-549 breast) of 5.29 µM. For the same compound, the GI50 (CAKI-1 renal) was 2.18 µM, the TGI (CAKI-1 renal) was 5.6 µM and the GI50 (COLO 205 colon) was 2.02 µM. It also gave a TGI (COLO 205 colon) of 3.69 µM, a GI50 (DU-145 prostate) of 2.97 µM and a TGI (DU-145 prostate) of 9.08 µM. For the same compound, the GI50 (HCC-2998 colon) was 2.09 µM, the TGI (HCC-2998 colon) was 5.3 µM and the GI50 (HCT-116 colon) was 1.71 µM. The TGI (HCT-116 colon) was 3.26 µM, the GI50 (HCT-15 colon) was 2.45 µM and the TGI (HCT-15 colon) was 7.4 µM. It also gave a GI50 (HL-60(TB) leukemia) of 1.84 µM, a TGI (HL-60(TB) leukemia) of 3.25 µM and a GI50 (HOP-62 NSCLC) of 2.77 µM. The TGI (HOP-62 NSCLC) was 7.57 µM, the GI50 (HS 578T breast) was 1.82 µM and the TGI (HS 578T breast) was 3.48 µM. The GI50 (HT29 colon) was 1.72 µM, the TGI (HT29 colon) was 3.19 µM and the GI50 (IGROV1 ovarian) was 2.89 µM. The TGI (IGROV1 ovarian) was 9.19 µM, the GI50 (K-562 leukemia) was 1.77 µM and the TGI (K-562 leukemia) was 3.33 µM. The GI50 (KM12 colon) was 2.4 µM, the TGI (KM12 colon) was 5.1 µM and the GI50 (LOX IMVI melanoma) was 2.04 µM. For the same compound, the TGI (LOX IMVI melanoma) was 3.52 µM, the GI50 (M14 melanoma) was 2.01 µM and the TGI (M14 melanoma) was 3.54 µM. It also gave a GI50 (MCF7 breast) of 1.79 µM, a TGI (MCF7 breast) of 4.37 µM and a GI50 (MDA-MB-231 breast) of 1.95 µM. It also gave a TGI (MDA-MB-231 breast) of 3.92 µM, a GI50 (MDA-MB-435 melanoma) of 3.59 µM and a TGI (MDA-MB-435 melanoma) of 11.7 µM. It also gave a GI50 (MOLT-4 leukemia) of 1.51 µM, a TGI (MOLT-4 leukemia) of 2.85 µM and a GI50 (NCI-H226 lung) of 1.99 µM. For the same compound, the TGI (NCI-H226 lung) was 4.03 µM, the GI50 (NCI-H23 lung) was 2.73 µM and the TGI (NCI-H23 lung) was 8.14 µM. The GI50 (NCI-H322M lung) was 3.91 µM, the TGI (NCI-H322M lung) was 9.99 µM and the GI50 (NCI-H460 NSCLC) was 2.06 µM. The TGI (NCI-H460 NSCLC) was 4.14 µM, the GI50 (NCI-H522 lung) was 2.05 µM and the TGI (NCI-H522 lung) was 4.02 µM. For the same compound, the GI50 (NCI/ADR-RES ovarian) was 2.51 µM, the TGI (NCI/ADR-RES ovarian) was 5.66 µM and the GI50 (OVCAR-3 ovarian) was 1.79 µM. It also gave a TGI (OVCAR-3 ovarian) of 3.28 µM, a GI50 (OVCAR-4 ovarian) of 1.63 µM and a TGI (OVCAR-4 ovarian) of 3.11 µM. It also gave a GI50 (OVCAR-5 ovarian) of 1.94 µM, a TGI (OVCAR-5 ovarian) of 3.97 µM and a GI50 (OVCAR-8 ovarian) of 1.79 µM. The TGI (OVCAR-8 ovarian) was 3.56 µM, the GI50 (PC-3 prostate) was 3.78 µM and the TGI (PC-3 prostate) was 12.1 µM. The GI50 (RXF 393 renal) was 1.6 µM, the TGI (RXF 393 renal) was 3.11 µM and the GI50 (SF-268 CNS) was 2.4 µM. It also gave a TGI (SF-268 CNS) of 7.46 µM, a GI50 (SF-539 CNS) of 1.71 µM and a TGI (SF-539 CNS) of 3.14 µM. It also gave a GI50 (SK-MEL-2 melanoma) of 1.8 µM, a TGI (SK-MEL-2 melanoma) of 3.34 µM and a GI50 (SK-MEL-28 melanoma) of 1.71 µM. The TGI (SK-MEL-28 melanoma) was 3.11 µM, the GI50 (SK-MEL-5 melanoma) was 1.62 µM and the TGI (SK-MEL-5 melanoma) was 3.02 µM. For the same compound, the GI50 (SN12C renal) was 1.76 µM, the TGI (SN12C renal) was 3.63 µM and the GI50 (SNB-19 CNS) was 3.96 µM. It also gave a TGI (SNB-19 CNS) of 13.5 µM, a GI50 (SR leukemia) of 1.58 µM and a TGI (SR leukemia) of 2.94 µM. The GI50 (SW-620 colon) was 2.61 µM, the TGI (SW-620 colon) was 6.97 µM and the GI50 (T-47D breast) was 1.75 µM. For the same compound, the TGI (T-47D breast) was 3.71 µM, the GI50 (TK-10 renal) was 2.32 µM and the TGI (TK-10 renal) was 5.77 µM. It also gave a GI50 (UACC-257 melanoma) of 1.74 µM, a TGI (UACC-257 melanoma) of 3.13 µM and a GI50 (UO-31 renal) of 1.77 µM. The TGI (UO-31 renal) was 3.19 µM.
